Laboratory results as given in US20040063580A1, “Bicyclic triazolone derivatives and a herbicides containing the same” (priority 2000, published 2004).

Assays:
[1] = test system: velvetleaf; experiment: Herbicidal effects against weeds (post emergence), velvetleaf; format: in vivo; conditions: post emergence spray, evaluated two weeks after treatment
Experimental: (§1) Herbicidal Effects Against Weeds (Post Emergence)
(§2) After filling 300 g field soil in jiffypot™ having diameter of 10 cm, the soil was steam sterilized. Seeds of velvetleaf, redroot pigweed, tall morningglory and corn onto the surface of the soil were scattered, and then covered with the soil to a thickness of 0.5 cm for the weed, 1 cm for the crop. When the weed and the crop reached the designated growth stage, they were treated with the compound to be tested.
(§3) Preparation of the Test Solution and the Method of Treatment
(§4) The compound to be tested was dissolved in acetone which contain Tween 20™ and diluted with deionized water to prepare the test solution for 10 g/a and 1 g/a use. The test solution was sprayed on the pots in a device for spraying using spraygun.
(§5) Method of Indicating the Effect and Phytotoxicity
(§6) The effect of the compound tested on the weeds and phytotoxicity on the crops were evaluated two weeks after treatment with the compound as 6 grades from 0 to 5 shown in the Table 9 and 10.
(§7) In the Table 11 and 12, the herbicidal effects were indicated by the following evaluation index.

[2] = test system: redroot pigweed; experiment: Herbicidal effects against weeds (post emergence), redroot pigweed; format: in vivo; conditions: post emergence spray, evaluated two weeks after treatment
Experimental: as §1, §2, §3, §4, §5, §6, §7

[3] = test system: corn; experiment: Post emergence test, phytotoxicity on the crop corn; format: in vivo; conditions: post emergence spray, evaluated two weeks after treatment
Experimental: as §1, §2, §3, §4, §5, §6
The phytotoxicity was indicated by the following evaluation index.

| melting point [°C] | Compound | Evaluation index Velvet leaf ([1]; 1 g/a) | Evaluation index Velvet leaf ([1]; 10 g/a) | Evaluation index Redroot pigweed ([2]; 1 g/a) | Evaluation index Redroot pigweed ([2]; 10 g/a) | also measured |
| --- | --- | --- | --- | --- | --- | --- |
|  | C=CCOc1cc(-n2nc3ccc(Cl)cn3c2=O)c(F)cc1Cl [Compound No. A-24] | 4 (maximum 87.6 to 99.9) | 5 (maximum *all dead) 100) | 5 (maximum *all dead) 100) | 5 (maximum *all dead) 100) |  |
|  | CCOC(=O)COc1cc(-n2nc3cc(C)ccn3c2=O)c(F)cc1Cl [A-55] |  | 4 (maximum 87.6 to 99.9) |  | 5 (maximum *all dead) 100) |  |
|  | CCS(=O)(=O)Nc1cc(-n2nc3ccc(Br)cn3c2=O)ccc1C#N [A-45] | 5 (maximum *all dead) 100) |  | 5 (maximum *all dead) 100) |  |  |
|  | C#CC(C)Oc1cc(-n2nc3ccc(Cl)cn3c2=O)c(F)cc1Cl (stereo not shown) [A-26] | 5 (maximum *all dead) 100) | 5 (maximum *all dead) 100) | 5 (maximum *all dead) 100) | 5 (maximum *all dead) 100) |  |
| 183 to 185 | C=CCOc1cc(-n2nc3ccc(Cl)cn3c2=O)c(F)cc1C#N [Compound No. A-13, 2-(5-Allyloxy-4-cyano-2-fluorophenyl)-6-chloro-1,2,4-triazolo[4,3-a]pyridin-3(2H)-one] |  |  |  |  |  |
|  | CCS(=O)(=O)Nc1cc(-n2nc3n(c2=O)CC(C)S3)c(F)cc1C#N (stereo not shown) [C-4] | 5 (maximum *all dead) 100) | 5 (maximum *all dead) 100) | 5 (maximum *all dead) 100) | 5 (maximum *all dead) 100) |  |
| 148 to 150 | CC(C)c1sc(F)c(-n2nc3ccc(Cl)cn3c2=O)c1C#N [Compound No. A-18, 6-Chloro-2-(4-cyano-2-fluoro-5-isopropylthiophenyl)-1,2,4-triazolo[4,3-a]pyridin-3(2H)-one] |  |  |  |  |  |
| 162 to 165 | CCOC(=O)C=Cc1cc(-n2nc3ccc(Cl)cn3c2=O)c(F)cc1Cl [A-42, Ethyl 2-chloro-4-fluoro-5-(6-chloro-2,3-dihydro-3-oxo-1,2,4-triazolo[4,3-a]pyridin-2-yl)cinnamate] |  |  |  |  |  |
| 140 to 142 | COc1cc(-n2nc3ccc(Cl)cn3c2=O)c(F)cc1Cl [Compound No. A-23, 6-Chloro-2-(4-chloro-2-fluoro-5-methoxyphenyl)-1,2,4-triazolo[4,3-a]pyridin-3(2H)-one] |  |  |  |  |  |
|  | COC(=O)C(Cl)Cc1cc(-n2nc3ccc(Cl)cn3c2=O)c(F)cc1Cl (stereo not shown) [Compound No. A-43, Methyl 2-chloro-3-[2-chloro-4-fluoro-5-(6-chloro-2,3-dihydro-3-oxo-1,2,4-triazolo[4,3-a]pyridin-2-yl)phenyl]propionate] | 5 (maximum *all dead) 100) | 5 (maximum *all dead) 100) | 5 (maximum *all dead) 100) | 5 (maximum *all dead) 100) | Evaluation index Corn (phytotoxicity) ([3]; 1 g/a): 0 (no effect 0); Evaluation index Corn (phytotoxicity) ([3]; 10 g/a): 0 (no effect 0) |
| 190 to 194 | CCC(=O)NS(=O)(=O)c1cc(-n2nc3ccc(Cl)cn3c2=O)c(F)cc1C#N [Compound No. A-20, 5-(6-Chloro-2,3-dihydro-3-oxo-1,2,4-triazolo[4,3-a]pyridin-2-yl)-2-cyano-4-fluoro-N-propionylbenzenesul fonamide] |  |  |  |  |  |
| 154 to 157 | CNS(=O)(=O)c1cc(-n2nc3ccc(Cl)cn3c2=O)c(F)cc1C#N [Compound No. A-21, 5-(6-Chloro-2,3-dihydro-3-oxo-1,2,4-triazolo[4,3-a]pyridin-2-yl)-2-cyano-4-fluoro-N-methylbenzenesulfonamide] |  |  |  |  |  |
|  | CCS(=O)(=O)N(C(=O)C(C)(C)C)c1cc(-n2nc3ccc(Cl)cn3c2=O)c(F)cc1C#N [A-8] | 5 (maximum *all dead) 100) | 5 (maximum *all dead) 100) | 5 (maximum *all dead) 100) | 5 (maximum *all dead) 100) |  |
|  | CCOC(=O)C(C)Oc1cc(-n2nc3ccc(Cl)cn3c2=O)c(F)cc1Cl (stereo not shown) [A-28] | 4 (maximum 87.6 to 99.9) | 5 (maximum *all dead) 100) | 5 (maximum *all dead) 100) | 5 (maximum *all dead) 100) |  |
|  | CC(C)S(=O)(=O)Nc1cc(-n2nc3ccc(Cl)cn3c2=O)c(F)cc1C#N [A-11] |  | 5 (maximum *all dead) 100) |  | 5 (maximum *all dead) 100) |  |
| 209 to 211 | C#CCOc1cc(-n2nc3ccc(Cl)cn3c2=O)c(F)cc1C#N [Compound No. A-14, 6-Chloro-2-(4-cyano-2-fluoro-5-propargyloxyphenyl)-1,2,4-triazolo[4,3-a]pyridin-3(2H)-one] |  |  |  |  |  |
|  | CCS(=O)(=O)Nc1cc(-n2nc3n(c2=O)CCCN3C)c(F)cc1C#N [Compound No. F-2, 5,6,7,8-Tetrahydro-8-methyl-2-(4-cyano-5-ethylsulfonylamino-2-fluorophenyl)-[1,2,4]triazolo [4,3-a]pyrimidin-3(2H)-one] | 4 (maximum 87.6 to 99.9) | 5 (maximum *all dead) 100) | 5 (maximum *all dead) 100) | 5 (maximum *all dead) 100) | Evaluation index Corn (phytotoxicity) ([3]; 1 g/a): 1 (small 0.1 to 12.5); Evaluation index Corn (phytotoxicity) ([3]; 10 g/a): 3 (big 25.1 to 50.0) |
| 145 to 147 | C#CCOc1cc(-n2nc3c(Cl)cc(Cl)cn3c2=O)c(F)cc1C#N [Compound No. A-49, 6,8-Dichloro-2-(4-cyano-2-fluoro-5-propargyloxyphenyl)-1,2,4-triazolo[4,3-a]pyridin-3(2H)-one] |  |  |  |  |  |
|  | C=C(Cl)COc1cc(-n2nc3ccc(Cl)cn3c2=O)c(F)cc1Cl [A-61] |  | 4 (maximum 87.6 to 99.9) |  | 5 (maximum *all dead) 100) |  |
|  | CCC(=O)N(c1cc(-n2nc3ccc(Cl)cn3c2=O)c(F)cc1C#N)S(=O)(=O)CC [A-7] |  | 5 (maximum *all dead) 100) |  | 5 (maximum *all dead) 100) |  |
| 120 to 123 | CC(C)OC(=O)c1cc(-n2nc3ccc(Cl)cn3c2=O)c(F)cc1Cl [Compound No. A-33, Isopropyl 2-chloro-4-fluoro-5-(6-chloro-2,3-dihydro-3-oxo-1,2,4-triazolo[4,3-a]pyridin-2-yl)benzoate] |  |  |  |  |  |
|  | CC(C)S(=O)(=O)Nc1cc(-n2nc3ccc(Cl)cn3c2=O)c(F)cc1[N+](=O)[O-] [A-41] | 5 (maximum *all dead) 100) | 5 (maximum *all dead) 100) | 5 (maximum *all dead) 100) | 5 (maximum *all dead) 100) |  |
| 176 to 178 | C#CCN(c1cc(-n2nc3ccc(Cl)cn3c2=O)c(F)cc1C#N)S(=O)(=O)CC [Compound No. A-5, 6-Chloro-2-[4-cyano-5-(N-ethanesulfonyl-N-propargylamino)-2-fluorophenyl]-1,2,4-triazolo[4,3-a]pyridin-3(2H)-one] |  |  |  |  |  |
|  | CCCS(=O)(=O)Nc1cc(-n2nc3ccc(Cl)cn3c2=O)c(F)cc1[N+](=O)[O-] [A-40] |  | 5 (maximum *all dead) 100) |  | 5 (maximum *all dead) 100) |  |
